Among the data in patent US5298511A, “Alkanoic acid derivatives” (Imperial Chemical Industries PLC, priority 1991, dated 1994) are IC50 values, retold here.

The target in this test is T1, 5-LO (Homo sapiens, UniProt P09917).
T1 construct: incubating a test compound with heparinised human blood, prior to challenge with the calcium ionophore A23187; endogenous in cells; host or cells: blood cells in heparinised human whole blood, challenged with A23187
T1 sequence (P09917 1-674): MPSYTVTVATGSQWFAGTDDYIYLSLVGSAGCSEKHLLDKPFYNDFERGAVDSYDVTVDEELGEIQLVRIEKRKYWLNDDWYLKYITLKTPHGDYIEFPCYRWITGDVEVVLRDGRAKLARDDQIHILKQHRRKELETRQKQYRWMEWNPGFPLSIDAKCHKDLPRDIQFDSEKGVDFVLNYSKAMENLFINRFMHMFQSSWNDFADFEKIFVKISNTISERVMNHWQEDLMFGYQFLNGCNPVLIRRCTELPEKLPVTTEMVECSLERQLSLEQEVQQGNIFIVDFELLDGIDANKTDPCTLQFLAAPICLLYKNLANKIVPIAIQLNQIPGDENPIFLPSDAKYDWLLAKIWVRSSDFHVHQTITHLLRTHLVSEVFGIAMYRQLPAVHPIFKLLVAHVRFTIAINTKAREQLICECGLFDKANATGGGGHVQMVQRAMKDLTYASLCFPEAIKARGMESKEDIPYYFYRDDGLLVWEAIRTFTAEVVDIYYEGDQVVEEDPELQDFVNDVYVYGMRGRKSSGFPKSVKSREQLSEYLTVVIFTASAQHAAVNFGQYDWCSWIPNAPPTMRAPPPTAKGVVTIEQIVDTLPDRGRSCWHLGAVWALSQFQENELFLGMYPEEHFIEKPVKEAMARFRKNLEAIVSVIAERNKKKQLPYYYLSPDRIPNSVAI
The test is described as follows: test a) in vitro heparinised human blood challenged with calcium ionophore A23187; LTB4 by radioimmunoassay. In kind it is cell-based. As for the experimental part: a) An in vitro assay system involving incubating a test compound with heparinised human blood, prior to challenge with the calcium ionophore A23187 and then indirectly measuring the inhibitory effects on 5-LO by assaying the amount of LTB4 using specific radioimmunoassays described by Carey and Forder (F. Carey and R. A. Forder, Prostaglandins, Leukotrienes Med., 1986, 22, 57; Prostaglandins, 1984, 28, 666; Brit. J. Pharmacol. 1985, 84, 34 P) which involve the use of a protein-LTB4 conjugate produced using the procedure of Young et alia (Prostaglandins, 1983, 26(4), 605-613). The effects of a test compound on the enzyme cyclooxygenase (which is involved in the alternative metabolic pathway for arachidonic acid and gives rise to prostaglandins, thromboxanes and related metabolites) may be measured at the same time using the specific radioimmunoassay for thromboxane B2 (TxB2) described by Carey and Forder (see above). This test provides an indication of the effects of a test compound against 5-LO and also cyclooxygenase in the presence of blood cells and proteins. It permits the selectivity of the inhibitory effect on 5-LO or cyclooxygenase to be assessed.

Broadly, the IC50 is the concentration at which inhibition is half-maximal. `CCOC(=O)C(CC)(CC)c1cccc(OCc2ccc3ccccc3c2)c1` [Example 1, ethyl 2-ethyl-2-[3-(naphth-2-ylmethoxy)phenyl]butyrate]: the IC50 came out at 200 nM.
